From ChEMBL document CHEMBL2390942, “Novel 3,5-bis(arylidene)-4-piperidone dimers: potent cytotoxins against colon cancer cells” (Eur J Med Chem, 2013)
pIC50: −log10 of the molar value. Calls of active or inactive are those of the source. The rule behind the calls is not given here.

The compounds below were run on HT-29 (assay: Cell cycle arrest in human HT-29 cells assessed as accumulation at G2/M phase at 1 uM after 48 hrs by propidium iodide staining-based FACS flow cytometric analysis). Details: not given.
Format: functional

SMILES | Activity
COc1ccc(/C=C2\CN(C(=O)C(=O)N3C/C(=C\c4ccc(OC)cc4)C(=O)/C(=C/c4ccc(OC)cc4)C3)C/C(=C\c3ccc(OC)cc3)C2=O)cc1 | inactive

These compounds were tested on HT-29 (assay: Cell cycle arrest in human HT-29 cells assessed as accumulation at S phase at 1 uM after 48 hrs by propidium iodide staining-based FACS flow cytometric analysis). Details: not given.
Format: functional

SMILES | Activity
COc1ccc(/C=C2\CN(C(=O)C(=O)N3C/C(=C\c4ccc(OC)cc4)C(=O)/C(=C/c4ccc(OC)cc4)C3)C/C(=C\c3ccc(OC)cc3)C2=O)cc1 | inactive

The compounds below were run on HT-29 (assay: Cytotoxicity against human HT-29 cells after 48 hrs by sulforhodamine B assay). Details: HT-29, 48 h.
Format: functional, cell-based

SMILES | pIC50
O=C1/C(=C\c2ccc(F)cc2)CN(C(=O)CC(=O)N2C/C(=C\c3ccc(F)cc3)C(=O)/C(=C/c3ccc(F)cc3)C2)C/C1=C\c1ccc(F)cc1 | 6.74
O=C1/C(=C/c2ccc(F)cc2)CN(C(=O)C(=O)N2C/C(=C\c3ccc(F)cc3)C(=O)/C(=C/c3ccc(F)cc3)C2)C/C1=C\c1ccc(F)cc1 | 7.52
COc1cc(/C=C2/CN(C(=O)CC(=O)N3C/C(=C\c4cc(OC)c(OC)c(OC)c4)C(=O)/C(=C/c4cc(OC)c(OC)c(OC)c4)C3)C/C(=C\c3cc(OC)c(OC)c(OC)c3)C2=O)cc(OC)c1OC | 7.40
O=C1/C(=C/c2ccccc2)CN(C(=O)C(=O)N2C/C(=C\c3ccccc3)C(=O)/C(=C/c3ccccc3)C2)C/C1=C\c1ccccc1 | 7.85
O=c1[nH]cc(F)c(=O)[nH]1 [FLUOROURACIL] | 5.20
COc1ccc(/C=C2/CN(C(=O)CC(=O)N3C/C(=C\c4ccc(OC)c(OC)c4)C(=O)/C(=C/c4ccc(OC)c(OC)c4)C3)C/C(=C\c3ccc(OC)c(OC)c3)C2=O)cc1OC | 6.51
COc1ccc(/C=C2/CN(C(=O)CC(=O)N3C/C(=C\c4ccc(OC)cc4)C(=O)/C(=C/c4ccc(OC)cc4)C3)C/C(=C\c3ccc(OC)cc3)C2=O)cc1 | 6.11
Cc1ccc(/C=C2/CN(C(=O)CC(=O)N3C/C(=C\c4ccc(C)cc4)C(=O)/C(=C/c4ccc(C)cc4)C3)C/C(=C\c3ccc(C)cc3)C2=O)cc1 | 6.70
COc1cc(/C=C2\CN(C(=O)C(=O)N3C/C(=C\c4cc(OC)c(OC)c(OC)c4)C(=O)/C(=C/c4ccc(OC)c(OC)c4OC)C3)C/C(=C\c3cc(OC)c(OC)c(OC)c3)C2=O)cc(OC)c1OC | 6.57
O=C1/C(=C\c2ccc(O)cc2)CN(C(=O)CC(=O)N2C/C(=C\c3ccc(O)cc3)C(=O)/C(=C/c3ccc(O)cc3)C2)C/C1=C\c1ccc(O)cc1 | 6.34
COc1ccc(/C=C2\CN(C(=O)C(=O)N3C/C(=C\c4ccc(OC)cc4)C(=O)/C(=C/c4ccc(OC)cc4)C3)C/C(=C\c3ccc(OC)cc3)C2=O)cc1 | 6.77

Each compound was assayed on HCT-116 (assay: Cell cycle arrest in human HCT116 cells assessed as accumulation at G2/M phase at 1 uM after 48 hrs by propidium iodide staining-based FACS flow cytometric analysis). Details: not given.
Format: functional

SMILES | Activity
COc1ccc(/C=C2\CN(C(=O)C(=O)N3C/C(=C\c4ccc(OC)cc4)C(=O)/C(=C/c4ccc(OC)cc4)C3)C/C(=C\c3ccc(OC)cc3)C2=O)cc1 | inactive

Each compound was assayed on HCT-116 (assay: Induction of apoptosis in human HCT116 cells assessed as dead cells at 1 uM after 48 hrs by Annexin V-FITC and propidium iodide staining-based FACS flow cytometric analysis (reference value: 49.93%)). Details: not given.
Format: functional

SMILES | Activity [%]
COc1ccc(/C=C2\CN(C(=O)C(=O)N3C/C(=C\c4ccc(OC)cc4)C(=O)/C(=C/c4ccc(OC)cc4)C3)C/C(=C\c3ccc(OC)cc3)C2=O)cc1 | 37.82

Each compound was assayed on HCT-116 (assay: Induction of apoptosis in human HCT116 cells assessed as live cells at 1 uM after 48 hrs by Annexin V-FITC and propidium iodide staining-based FACS flow cytometric analysis (reference value: 47.40%)). Details: not given.
Format: functional

SMILES | Activity [%]
COc1ccc(/C=C2\CN(C(=O)C(=O)N3C/C(=C\c4ccc(OC)cc4)C(=O)/C(=C/c4ccc(OC)cc4)C3)C/C(=C\c3ccc(OC)cc3)C2=O)cc1 | 24.47

Each compound was assayed on HCT-116 (assay: Cytotoxicity against human HCT116 cells after 48 hrs by sulforhodamine B assay). Details: HCT-116, 48 h.
Format: functional, cell-based

SMILES | pIC50
O=C1/C(=C\c2ccc(F)cc2)CN(C(=O)CC(=O)N2C/C(=C\c3ccc(F)cc3)C(=O)/C(=C/c3ccc(F)cc3)C2)C/C1=C\c1ccc(F)cc1 | 6.22
O=C1/C(=C/c2ccc(F)cc2)CN(C(=O)C(=O)N2C/C(=C\c3ccc(F)cc3)C(=O)/C(=C/c3ccc(F)cc3)C2)C/C1=C\c1ccc(F)cc1 | 7.70
COc1cc(/C=C2/CN(C(=O)CC(=O)N3C/C(=C\c4cc(OC)c(OC)c(OC)c4)C(=O)/C(=C/c4cc(OC)c(OC)c(OC)c4)C3)C/C(=C\c3cc(OC)c(OC)c(OC)c3)C2=O)cc(OC)c1OC | 7.70
O=C1/C(=C/c2ccccc2)CN(C(=O)C(=O)N2C/C(=C\c3ccccc3)C(=O)/C(=C/c3ccccc3)C2)C/C1=C\c1ccccc1 | 7.40
O=c1[nH]cc(F)c(=O)[nH]1 [FLUOROURACIL] | 5.34
COc1ccc(/C=C2/CN(C(=O)CC(=O)N3C/C(=C\c4ccc(OC)c(OC)c4)C(=O)/C(=C/c4ccc(OC)c(OC)c4)C3)C/C(=C\c3ccc(OC)c(OC)c3)C2=O)cc1OC | 6.74
COc1ccc(/C=C2/CN(C(=O)CC(=O)N3C/C(=C\c4ccc(OC)cc4)C(=O)/C(=C/c4ccc(OC)cc4)C3)C/C(=C\c3ccc(OC)cc3)C2=O)cc1 | 7.22
Cc1ccc(/C=C2/CN(C(=O)CC(=O)N3C/C(=C\c4ccc(C)cc4)C(=O)/C(=C/c4ccc(C)cc4)C3)C/C(=C\c3ccc(C)cc3)C2=O)cc1 | 6.39
COc1cc(/C=C2\CN(C(=O)C(=O)N3C/C(=C\c4cc(OC)c(OC)c(OC)c4)C(=O)/C(=C/c4ccc(OC)c(OC)c4OC)C3)C/C(=C\c3cc(OC)c(OC)c(OC)c3)C2=O)cc(OC)c1OC | 6.57
O=C1/C(=C\c2ccc(O)cc2)CN(C(=O)CC(=O)N2C/C(=C\c3ccc(O)cc3)C(=O)/C(=C/c3ccc(O)cc3)C2)C/C1=C\c1ccc(O)cc1 | 6.14
COc1ccc(/C=C2\CN(C(=O)C(=O)N3C/C(=C\c4ccc(OC)cc4)C(=O)/C(=C/c4ccc(OC)cc4)C3)C/C(=C\c3ccc(OC)cc3)C2=O)cc1 | 7.70

These compounds were tested on HCT-116 (assay: Ratio of 5-fluorouracil IC50 to compound IC50 for human HCT116 cells after 48 hrs by sulforhodamine B assay). Details: not given.
Format: functional

SMILES | Ratio IC50
O=C1/C(=C\c2ccc(F)cc2)CN(C(=O)CC(=O)N2C/C(=C\c3ccc(F)cc3)C(=O)/C(=C/c3ccc(F)cc3)C2)C/C1=C\c1ccc(F)cc1 | 8
O=C1/C(=C/c2ccc(F)cc2)CN(C(=O)C(=O)N2C/C(=C\c3ccc(F)cc3)C(=O)/C(=C/c3ccc(F)cc3)C2)C/C1=C\c1ccc(F)cc1 | 226
COc1cc(/C=C2/CN(C(=O)CC(=O)N3C/C(=C\c4cc(OC)c(OC)c(OC)c4)C(=O)/C(=C/c4cc(OC)c(OC)c(OC)c4)C3)C/C(=C\c3cc(OC)c(OC)c(OC)c3)C2=O)cc(OC)c1OC | 226
O=C1/C(=C/c2ccccc2)CN(C(=O)C(=O)N2C/C(=C\c3ccccc3)C(=O)/C(=C/c3ccccc3)C2)C/C1=C\c1ccccc1 | 113
O=c1[nH]cc(F)c(=O)[nH]1 [FLUOROURACIL] | 1
COc1ccc(/C=C2/CN(C(=O)CC(=O)N3C/C(=C\c4ccc(OC)c(OC)c4)C(=O)/C(=C/c4ccc(OC)c(OC)c4)C3)C/C(=C\c3ccc(OC)c(OC)c3)C2=O)cc1OC | 25
COc1ccc(/C=C2/CN(C(=O)CC(=O)N3C/C(=C\c4ccc(OC)cc4)C(=O)/C(=C/c4ccc(OC)cc4)C3)C/C(=C\c3ccc(OC)cc3)C2=O)cc1 | 75
Cc1ccc(/C=C2/CN(C(=O)CC(=O)N3C/C(=C\c4ccc(C)cc4)C(=O)/C(=C/c4ccc(C)cc4)C3)C/C(=C\c3ccc(C)cc3)C2=O)cc1 | 11
COc1cc(/C=C2\CN(C(=O)C(=O)N3C/C(=C\c4cc(OC)c(OC)c(OC)c4)C(=O)/C(=C/c4ccc(OC)c(OC)c4OC)C3)C/C(=C\c3cc(OC)c(OC)c(OC)c3)C2=O)cc(OC)c1OC | 17
O=C1/C(=C\c2ccc(O)cc2)CN(C(=O)CC(=O)N2C/C(=C\c3ccc(O)cc3)C(=O)/C(=C/c3ccc(O)cc3)C2)C/C1=C\c1ccc(O)cc1 | 6
COc1ccc(/C=C2\CN(C(=O)C(=O)N3C/C(=C\c4ccc(OC)cc4)C(=O)/C(=C/c4ccc(OC)cc4)C3)C/C(=C\c3ccc(OC)cc3)C2=O)cc1 | 226

What follows are compounds tested on HCT-116 (assay: Induction of apoptosis in human HCT116 cells assessed as apoptotic cells at 1 uM after 24 hrs by Annexin V-FITC and propidium iodide staining-based FACS flow cytometric analysis (reference value: 2.82%)). Details: not given.
Format: functional

SMILES | Activity [%]
COc1ccc(/C=C2\CN(C(=O)C(=O)N3C/C(=C\c4ccc(OC)cc4)C(=O)/C(=C/c4ccc(OC)cc4)C3)C/C(=C\c3ccc(OC)cc3)C2=O)cc1 | 34.93

These compounds were tested on HCT-116 (assay: Induction of apoptosis in human HCT116 cells assessed as dead cells at 1 uM after 24 hrs by Annexin V-FITC and propidium iodide staining-based FACS flow cytometric analysis (reference value: 38.02%)). Details: not given.
Format: functional

SMILES | Activity [%]
COc1ccc(/C=C2\CN(C(=O)C(=O)N3C/C(=C\c4ccc(OC)cc4)C(=O)/C(=C/c4ccc(OC)cc4)C3)C/C(=C\c3ccc(OC)cc3)C2=O)cc1 | 21.63

What follows are compounds tested on HT-29 (assay: Ratio of 5-fluorouracil IC50 to compound IC50 for human HT-29 cells after 48 hrs by sulforhodamine B assay). Details: not given.
Format: functional

SMILES | Ratio IC50
O=C1/C(=C\c2ccc(F)cc2)CN(C(=O)CC(=O)N2C/C(=C\c3ccc(F)cc3)C(=O)/C(=C/c3ccc(F)cc3)C2)C/C1=C\c1ccc(F)cc1 | 35
O=C1/C(=C/c2ccc(F)cc2)CN(C(=O)C(=O)N2C/C(=C\c3ccc(F)cc3)C(=O)/C(=C/c3ccc(F)cc3)C2)C/C1=C\c1ccc(F)cc1 | 212
COc1cc(/C=C2/CN(C(=O)CC(=O)N3C/C(=C\c4cc(OC)c(OC)c(OC)c4)C(=O)/C(=C/c4cc(OC)c(OC)c(OC)c4)C3)C/C(=C\c3cc(OC)c(OC)c(OC)c3)C2=O)cc(OC)c1OC | 159
O=C1/C(=C/c2ccccc2)CN(C(=O)C(=O)N2C/C(=C\c3ccccc3)C(=O)/C(=C/c3ccccc3)C2)C/C1=C\c1ccccc1 | 454
O=c1[nH]cc(F)c(=O)[nH]1 [FLUOROURACIL] | 1
COc1ccc(/C=C2/CN(C(=O)CC(=O)N3C/C(=C\c4ccc(OC)c(OC)c4)C(=O)/C(=C/c4ccc(OC)c(OC)c4)C3)C/C(=C\c3ccc(OC)c(OC)c3)C2=O)cc1OC | 20
COc1ccc(/C=C2/CN(C(=O)CC(=O)N3C/C(=C\c4ccc(OC)cc4)C(=O)/C(=C/c4ccc(OC)cc4)C3)C/C(=C\c3ccc(OC)cc3)C2=O)cc1 | 8
Cc1ccc(/C=C2/CN(C(=O)CC(=O)N3C/C(=C\c4ccc(C)cc4)C(=O)/C(=C/c4ccc(C)cc4)C3)C/C(=C\c3ccc(C)cc3)C2=O)cc1 | 32
COc1cc(/C=C2\CN(C(=O)C(=O)N3C/C(=C\c4cc(OC)c(OC)c(OC)c4)C(=O)/C(=C/c4ccc(OC)c(OC)c4OC)C3)C/C(=C\c3cc(OC)c(OC)c(OC)c3)C2=O)cc(OC)c1OC | 24
O=C1/C(=C\c2ccc(O)cc2)CN(C(=O)CC(=O)N2C/C(=C\c3ccc(O)cc3)C(=O)/C(=C/c3ccc(O)cc3)C2)C/C1=C\c1ccc(O)cc1 | 14
COc1ccc(/C=C2\CN(C(=O)C(=O)N3C/C(=C\c4ccc(OC)cc4)C(=O)/C(=C/c4ccc(OC)cc4)C3)C/C(=C\c3ccc(OC)cc3)C2=O)cc1 | 37

The compounds below were run on HCT-116 (assay: Induction of apoptosis in human HCT116 cells assessed as live cells at 1 uM after 24 hrs by Annexin V-FITC and propidium iodide staining-based FACS flow cytometric analysis (reference value: 59.15%)). Details: not given.
Format: functional

SMILES | Activity [%]
COc1ccc(/C=C2\CN(C(=O)C(=O)N3C/C(=C\c4ccc(OC)cc4)C(=O)/C(=C/c4ccc(OC)cc4)C3)C/C(=C\c3ccc(OC)cc3)C2=O)cc1 | 44.4

What follows are compounds tested on HCT-116 (assay: Cell cycle arrest in human HCT116 cells assessed as accumulation at S phase at 1 uM after 48 hrs by propidium iodide staining-based FACS flow cytometric analysis). Details: not given.
Format: functional

SMILES | Activity
COc1ccc(/C=C2\CN(C(=O)C(=O)N3C/C(=C\c4ccc(OC)cc4)C(=O)/C(=C/c4ccc(OC)cc4)C3)C/C(=C\c3ccc(OC)cc3)C2=O)cc1 | inactive

The compounds below were run on HCT-116 (assay: Induction of apoptosis in human HCT116 cells assessed as apoptotic cells at 1 uM after 48 hrs by Annexin V-FITC and propidium iodide staining-based FACS flow cytometric analysis (reference value: 2.59%)). Details: not given.
Format: functional

SMILES | Activity [%]
COc1ccc(/C=C2\CN(C(=O)C(=O)N3C/C(=C\c4ccc(OC)cc4)C(=O)/C(=C/c4ccc(OC)cc4)C3)C/C(=C\c3ccc(OC)cc3)C2=O)cc1 | 38.51
